Consider 5 compounds from patent US20150045610A1, “METHOD OF MODIFYING SPERMATOGENESIS, SPERMIOGENESIS AND/OR FERTILITY IN MAMMALS” (Monell Chemical Senses Center, priority 2012, published 2015).

Each structure is given as a SMILES string.

One data set has as its target T1, humanized mhT1R3 (Homo sapiens, UniProt Q7RTX0, A109T/A120V/A176D/A197V/A198V/A228S/A231N/A248T/A280V/A282S/A302S/A412V/A417V/A46T/A537T/C375D/D124S/D249S/D250G/D364H/D419E/D470T/D491G/D88A/DEL352-352/DEL488-489/E172D/E199T/E203N/E217D/E356N/E45S/E481Q/E505D/E525K/E545Q/F540P/F555L/G168S/G205S/G311T/G314N/G355L/G360D/G414H/G438R/G439D/G463S/G50T/G542N/H261R/H278R/H281Y/H332P/I485M/I536F/INS376MLQNLSSG/K32Q/K339E/K422L/K494V/K86G/L173R/L245Q/L272V/L29F/L354S/L385Q/L433M/L458M/L483S/L71F/L74M/M151L/M315I/M318V/M31A/N285S/N386L/N532H/N68L/P112S/P246H/P335S/P416H/P420H/P441T/P60I/Q221E/Q257L/Q317R/Q330L/Q336H/Q359L/Q372R/Q418S/Q504K/Q531K/R123Q/R247D/R252Q/R291G/R30K/R357A/R443Q/R467V/R473T/R479Q/R482Q/R486Y/R498Q/R52N/R550K/R553A/R556P/R560K/R56Q/S251Q/S267K/S289H/S290H/S392A/S446A/S447E/S464P/S477T/S490P/S53Q/S559P/S58N/S67P/T195Q/T346A/T377L/T390I/T434S/T480L/T63N/V152I/V277A/V366M/V36I/V381L/V393T/V437A/V465T/V61P/W72L).
T1 construct: the extracellular domain is of mouse origin and the transmembrane and intracellular domains of human origin; mouse T1R3 extracellular domain (fusion partner replacing the human extracellular domain); expressed in transfected cells; host or cells: transgenic mice (Line 7, 9, 7c) on T1R3-null background; transgene under 13 kb T1R3 promoter, followed by IRES-eGFP
T1 sequence (Q7RTX0 with tags, fused parts or gaps L29F/R30K/M31A/K32Q/V36I/E45S/A46T/G50T/R52N/S53Q/R56Q/S58N/P60I/V61P/T63N/S67P/N68L/L71F/W72L/L74M/K86G/D88A/A109T/P112S/A120V/R123Q/D124S/M151L/V152I/G168S/E172D/L173R/A176D/T195Q/A197V/A198V/E199T/E203N/G205S/E217D/Q221E/A228S/A231N/L245Q/P246H/R247D/A248T/D249S/D250G/S251Q/R252Q/Q257L/H261R/S267K/L272V/V277A/H278R/A280V/H281Y/A282S/N285S/S289H/S290H/R291G/A302S/G311T/G314N/M315I/Q317R/M318V/Q330L/H332P/P335S/Q336H/K339E/T346A/DEL352-352/L354S/G355L/E356N/R357A/Q359L/G360D/D364H/V366M/Q372R/C375D/INS376MLQNLSSG/T377L/V381L/L385Q/N386L/T390I/S392A/V393T/A412V/G414H/P416H/A417V/Q418S/D419E/P420H/K422L/L433M/T434S/V437A/G438R/G439D/P441T/R443Q/S446A/S447E/L458M/G463S/S464P/V465T/R467V/D470T/R473T/S477T/R479Q/T480L/E481Q/R482Q/L483S/I485M/R486Y/DEL488-489/S490P/D491G/K494V/R498Q/Q504K/E505D/E525K/Q531K/N532H/I536F/A537T/F540P/G542N/E545Q/R550K/R553A/F555L/R556P/S559P/R560K limits assumed): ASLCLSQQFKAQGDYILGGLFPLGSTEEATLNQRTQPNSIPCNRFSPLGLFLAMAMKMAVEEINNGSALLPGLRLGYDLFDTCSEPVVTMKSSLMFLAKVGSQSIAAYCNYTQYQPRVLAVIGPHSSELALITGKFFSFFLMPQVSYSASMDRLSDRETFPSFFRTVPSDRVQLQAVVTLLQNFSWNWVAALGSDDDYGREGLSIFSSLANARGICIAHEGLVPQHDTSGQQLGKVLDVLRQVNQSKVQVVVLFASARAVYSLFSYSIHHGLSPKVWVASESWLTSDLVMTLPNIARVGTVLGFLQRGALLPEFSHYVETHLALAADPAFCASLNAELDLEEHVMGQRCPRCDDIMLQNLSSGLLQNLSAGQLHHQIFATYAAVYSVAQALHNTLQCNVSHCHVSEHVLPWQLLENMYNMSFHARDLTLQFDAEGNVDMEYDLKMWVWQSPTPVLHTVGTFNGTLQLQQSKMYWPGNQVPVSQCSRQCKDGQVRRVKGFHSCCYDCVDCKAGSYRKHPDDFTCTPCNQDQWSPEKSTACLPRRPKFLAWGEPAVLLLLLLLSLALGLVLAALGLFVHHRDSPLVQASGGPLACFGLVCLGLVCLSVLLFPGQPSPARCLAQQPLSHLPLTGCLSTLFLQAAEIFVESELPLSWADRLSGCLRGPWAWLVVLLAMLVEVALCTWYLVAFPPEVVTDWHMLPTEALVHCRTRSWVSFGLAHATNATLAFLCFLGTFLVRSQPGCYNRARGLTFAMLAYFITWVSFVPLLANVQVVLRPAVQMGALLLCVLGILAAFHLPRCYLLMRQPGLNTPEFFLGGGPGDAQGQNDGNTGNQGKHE
T1 sequence (Q925I4 20-843 partner): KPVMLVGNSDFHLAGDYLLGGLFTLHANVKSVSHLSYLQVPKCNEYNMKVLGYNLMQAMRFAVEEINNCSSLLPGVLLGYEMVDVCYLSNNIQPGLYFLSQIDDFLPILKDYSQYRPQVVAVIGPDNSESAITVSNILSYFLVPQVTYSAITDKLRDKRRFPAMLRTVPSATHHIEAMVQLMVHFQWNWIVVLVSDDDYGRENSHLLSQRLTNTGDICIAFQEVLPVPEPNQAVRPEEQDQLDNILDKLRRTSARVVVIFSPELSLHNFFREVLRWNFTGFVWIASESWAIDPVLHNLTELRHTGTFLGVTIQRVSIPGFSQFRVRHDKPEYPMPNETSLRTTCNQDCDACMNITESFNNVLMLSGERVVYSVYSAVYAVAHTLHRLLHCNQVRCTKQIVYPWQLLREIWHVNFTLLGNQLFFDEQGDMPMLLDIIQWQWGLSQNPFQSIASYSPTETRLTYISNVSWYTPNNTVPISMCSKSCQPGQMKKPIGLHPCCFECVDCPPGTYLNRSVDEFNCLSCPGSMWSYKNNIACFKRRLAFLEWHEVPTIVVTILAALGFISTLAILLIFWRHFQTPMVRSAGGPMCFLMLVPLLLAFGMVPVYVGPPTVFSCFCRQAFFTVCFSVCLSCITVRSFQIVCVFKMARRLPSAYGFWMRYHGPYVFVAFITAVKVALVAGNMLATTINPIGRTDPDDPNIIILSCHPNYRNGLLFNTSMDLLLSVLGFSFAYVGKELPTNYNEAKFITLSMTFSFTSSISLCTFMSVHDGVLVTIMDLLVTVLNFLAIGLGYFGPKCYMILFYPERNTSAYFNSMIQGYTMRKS
Briefly: sweet taste preference of transgenic mice expressing humanized T1R3. It counts as in vivo, mouse. The procedure: We used the chimeric mhT1R3 receptor to produce conventional transgenic animals. The DNA construct was injected into a genetically engineered mouse line that lacks endogenous T1R3 (T1R3KO or T1R3-null). […] We call these mice Line7.
For further crosses, we used the line 7 that has fewer copies of the transgene.
Such compounds may be produced normally in organs (e.g. in testis) or chemically synthesized.

Another data set has as its target T2, human T1R3 receptor (Homo sapiens, UniProt Q7RTX0).
T2 construct: expressed in transfected cells
T2 sequence (Q7RTX0 21-852): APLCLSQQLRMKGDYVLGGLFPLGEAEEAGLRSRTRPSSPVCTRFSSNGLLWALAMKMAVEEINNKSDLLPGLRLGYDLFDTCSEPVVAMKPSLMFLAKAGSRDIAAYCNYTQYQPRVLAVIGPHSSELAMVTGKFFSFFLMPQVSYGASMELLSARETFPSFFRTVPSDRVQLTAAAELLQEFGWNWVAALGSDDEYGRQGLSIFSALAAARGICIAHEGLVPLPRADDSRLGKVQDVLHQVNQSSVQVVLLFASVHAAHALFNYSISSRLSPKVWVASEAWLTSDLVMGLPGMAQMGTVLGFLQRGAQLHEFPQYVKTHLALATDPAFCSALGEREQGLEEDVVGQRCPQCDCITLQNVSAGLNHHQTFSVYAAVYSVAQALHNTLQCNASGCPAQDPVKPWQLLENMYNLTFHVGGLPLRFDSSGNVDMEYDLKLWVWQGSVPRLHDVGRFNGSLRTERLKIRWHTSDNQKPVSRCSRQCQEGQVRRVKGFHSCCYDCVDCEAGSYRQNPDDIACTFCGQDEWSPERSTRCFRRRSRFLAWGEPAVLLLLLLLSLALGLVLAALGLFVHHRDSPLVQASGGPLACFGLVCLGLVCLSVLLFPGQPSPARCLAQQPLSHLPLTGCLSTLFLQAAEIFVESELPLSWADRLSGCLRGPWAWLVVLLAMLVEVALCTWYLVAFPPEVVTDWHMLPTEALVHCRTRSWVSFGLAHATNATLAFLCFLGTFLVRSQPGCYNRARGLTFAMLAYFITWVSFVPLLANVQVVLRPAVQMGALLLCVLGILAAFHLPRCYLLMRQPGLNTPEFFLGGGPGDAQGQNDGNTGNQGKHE
T2 sequence (Q8TE23 20-839 partner): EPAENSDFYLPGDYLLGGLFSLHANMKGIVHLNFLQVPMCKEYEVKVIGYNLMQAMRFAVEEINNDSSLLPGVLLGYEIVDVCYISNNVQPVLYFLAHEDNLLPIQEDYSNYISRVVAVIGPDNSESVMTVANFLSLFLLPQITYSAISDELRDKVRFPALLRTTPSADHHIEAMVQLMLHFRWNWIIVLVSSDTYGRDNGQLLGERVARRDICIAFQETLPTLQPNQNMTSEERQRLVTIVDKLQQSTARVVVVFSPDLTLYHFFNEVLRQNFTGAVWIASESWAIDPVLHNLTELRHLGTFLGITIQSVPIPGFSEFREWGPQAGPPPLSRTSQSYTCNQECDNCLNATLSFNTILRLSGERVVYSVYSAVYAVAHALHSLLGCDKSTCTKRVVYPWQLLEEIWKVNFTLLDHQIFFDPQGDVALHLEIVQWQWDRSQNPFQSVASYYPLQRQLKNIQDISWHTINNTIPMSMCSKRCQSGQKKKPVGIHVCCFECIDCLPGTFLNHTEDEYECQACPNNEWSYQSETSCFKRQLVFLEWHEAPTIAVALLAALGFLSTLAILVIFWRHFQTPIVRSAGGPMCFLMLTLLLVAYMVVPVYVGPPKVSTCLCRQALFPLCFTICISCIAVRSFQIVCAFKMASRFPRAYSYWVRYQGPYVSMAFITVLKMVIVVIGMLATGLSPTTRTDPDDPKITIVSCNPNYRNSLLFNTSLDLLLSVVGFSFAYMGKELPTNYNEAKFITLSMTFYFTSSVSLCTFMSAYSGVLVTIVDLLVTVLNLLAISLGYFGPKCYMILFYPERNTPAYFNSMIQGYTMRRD
The settings on record: cited from earlier work.

Another data set deals with PDE. Kind of data set: PDE pharmacological block with theophylline in drinking water.
[1] abbreviates: lines 7, 9, 7c expressing humanized receptor.

`CC(Oc1ccc(Cl)cc1Cl)C(=O)O` (centres unmarked) [2,4-DP, 2-(2,4-dichlorophenoxyl) propionic acid]: the “sweet preference of Line 7 mice” value at humanized mhT1R3 (0.2 mM 2,4-DP) is listed as “blocked”. Besides, the “sweet responses of the transgenic animals” value at humanized mhT1R3 (setting [1]) is given as “even more powerful inhibitor”.

`CC(C)(Oc1ccc(CCNC(=O)c2ccc(Cl)cc2)cc1)C(=O)O` [bezafibric acid]: the “T1R3 inhibition compared with PPAR-α activation” value at human T1R3 receptor is recorded as “comparable to their activation of PPAR-α”.

As for `OC[C@H]1O[C@H](O[C@]2(CCl)O[C@H](CCl)[C@@H](O)[C@@H]2O)[C@H](O)[C@@H](O)[C@H]1Cl` [sucralose], the “preference of transgenic animals for sweetener” value on humanized mhT1R3 (setting [1]) is reported as “modest preference”.

In the case of `OC[C@H]1O[C@@](CO)(O[C@H]2O[C@H](CO)[C@@H](O)[C@H](O)[C@H]2O)[C@@H](O)[C@@H]1O` [sucrose], on humanized mhT1R3 (setting [1]), the “preference of transgenic animals for sweetener” value is “strong preference”.

Regarding `Cn1c(=O)c2[nH]cnc2n(C)c1=O` [theophylline], the testis pathology entry in the data set with PDE (T1R3-null animals, theophylline, compared with clofibrate-treated animals) was “similar, although milder, pathology”. The “pathology in testis after single block” value with PDE (control genotypes, theophylline alone, preliminary) is on record as “no detectable pathology in testis”. The “adverse effect on health and behavior” value in the data set on PDE (theophylline-treated animals) was “no obvious adverse effect”.
